# Reference: article PMC2862740, “Furin Targeted Drug Delivery for Treatment of Rhabdomyosarcoma in a Mouse Model” (PLoS ONE, 2010)
# Positions of bridges follow the written chain, without caps; N, C: chain ends. No end group written: not given here.
# Test system: RMS cells (RD, Rh4, Rh30)
# Assay: phage binding to RMS cell lines versus normal cells
# Assay type: cell-based
# Conditions: control phage
# Procedure: Figure 1 Validation of selected phages binding on RMS cells in vivo and in vitro. (A) Quantification of binding of single phage clones to different cell lines. Six phages selected from in vitro and in vivo screenings were validated individually in binding assays to three RMS cell lines (embryonal RMS: RD; alveolar RMS: Rh30 and Rh4) as well as to normal myoblasts (SkMC-c) and fibroblast cells (MRC-5). Phage clones are ordered according to the frequency of occurrence. Binding was calculated over non-recombinant T7, depicted are mean values ± SD of three independent experiments. (B) RMS-P3 and RMS-P6 phage distribution in RD mouse xenografts. Homing of phages to tumor was compared to control organs. Binding was normalized over phage T7 and tissue weight. Mean values ± SD of four independent experiments are shown. Numerical values for tumor to organ ratios are indicated above the bars. (C) Validation of RMS-P3 peptide sequence by competition of phage binding. 10^6 RD cells were incubated for 30 min with increasing concentrations of RMS-P3 peptide ([…]) or control peptide ([…]). Then, phages (10^9 pfu) were added for 1 h. Phage binding was normalized over non-recombinant T7. Data are presented as percentage of maximal phage binding obtained in the absence of synthetic peptide. Error bars indicate mean ± SD from three independent experiments. […]
sequence,measurement,value
"CSPNNTRRPNKC (disulfide 1-12 (inferred)) [phage RMS-Pctrl, phage displaying […], arose spontaneously during the in vitro screening; negative control]",binding to tumor cells,no binding to tumor cells
